Measurements from patent publication US20150087627A1, “COMBINATION OF KINASE INHIBITORS AND USES THEREOF” (Intellikine LLC, priority 2011, published 2015).
Structures can show the parent of a compound that is named as a salt. Where two headings read alike, the source gives them in different places. *1 amine or outer side, *2 acyl side, *3 side chain or, on linkers, in order; H or OH if unused. Where a SMILES comes first, the peptide text is derived from it. Bridges are numbered along the chain shown (N, C = ends). Roman numbers before positions name the chains, in order. [ ]: non-standard residue; d: D form. Actinocin(9to1) = Cc1c2oc3c(C)ccc(C(=O)[*:1])c3nc-2c(C(=O)[*:2])c(N)c1=O; NMeV = CN[C@H](C(=O)O)C(C)C; Sar = CNCC(=O)O

Legend:
PC3 = PC3 proliferation; type: cell-based; settings: Homo sapiens, PC-3
PI3K α (p110α/p85α) = target: T1, PI3K α (p110α/p85α) (Homo sapiens, UniProt P42336); experiment: PI 3-Kinase (human) HTRF assay, PI3K α; type: biochemical
T1 construct: purchased Upstate / Millipore Corporation

PI3K δ = target: T2, PI3K δ (Homo sapiens, UniProt O00329); experiment: PI 3-Kinase (human) HTRF assay, PI3K δ; type: biochemical; settings: read-out: PI3K δ IC50
T2 construct: purchased Upstate / Millipore Corporation

PI3K β (p110β/p85α) = target: T3, PI3K β (p110β/p85α) (Homo sapiens, UniProt P42338); experiment: PI 3-Kinase (human) HTRF assay, PI3K β; type: biochemical
T3 construct: purchased Upstate / Millipore Corporation

mTOR = target: T4, mTOR (Homo sapiens, UniProt P42345); experiment: mTOR kinase inhibition assay (radiometric or LanthaScreen TR-FRET); type: biochemical; settings: read-out: mTORC IC50
T4 construct: purchased Invitrogen

T47D = T47D proliferation; type: cell-based; settings: Homo sapiens; T47D cell line
PI3K γ (p110γ) = target: T5, PI3K γ (p110γ) (Homo sapiens, UniProt P48736); experiment: PI 3-Kinase (human) HTRF assay, PI3K γ; type: biochemical
T5 construct: purchased Upstate / Millipore Corporation
Procedure: Briefly, the assay is a time resolved FRET assay that indirectly measures PIP3 product formed by the activity of a PI3-K. The kinase reaction is performed in a microtiter plate (e.g., a 384 well microtiter plate). The total reaction volume is approximately 20 ul per well. In the first step, each well receives 2 ul of test compound in 20% dimethylsulphoxide resulting in a 2% DMSO final concentration. […] The plate is sealed and incubated for 15 minutes at room temperature. […] The plate is sealed and incubated for 1 hour at room temperature. The reaction is stopped by adding 5 ul of Stop Solution per well and then 5 ul of Detection Mix is added per well. The plate is sealed, incubated for 1 hour at room temperature, and then read on an appropriate plate reader. Data is analyzed and IC50s are generated using GraphPad Prism 5.

[1] = clinical use of the marketed drug; cited from earlier work
[2] = PC3 cell line (compounds before 438), read-out: PC3 proliferation (nM)*
[3] = Table 2 (mTor inhibitor compounds), PC3, read-out: PC3 proliferation

T2 sequence (O00329 whole entry): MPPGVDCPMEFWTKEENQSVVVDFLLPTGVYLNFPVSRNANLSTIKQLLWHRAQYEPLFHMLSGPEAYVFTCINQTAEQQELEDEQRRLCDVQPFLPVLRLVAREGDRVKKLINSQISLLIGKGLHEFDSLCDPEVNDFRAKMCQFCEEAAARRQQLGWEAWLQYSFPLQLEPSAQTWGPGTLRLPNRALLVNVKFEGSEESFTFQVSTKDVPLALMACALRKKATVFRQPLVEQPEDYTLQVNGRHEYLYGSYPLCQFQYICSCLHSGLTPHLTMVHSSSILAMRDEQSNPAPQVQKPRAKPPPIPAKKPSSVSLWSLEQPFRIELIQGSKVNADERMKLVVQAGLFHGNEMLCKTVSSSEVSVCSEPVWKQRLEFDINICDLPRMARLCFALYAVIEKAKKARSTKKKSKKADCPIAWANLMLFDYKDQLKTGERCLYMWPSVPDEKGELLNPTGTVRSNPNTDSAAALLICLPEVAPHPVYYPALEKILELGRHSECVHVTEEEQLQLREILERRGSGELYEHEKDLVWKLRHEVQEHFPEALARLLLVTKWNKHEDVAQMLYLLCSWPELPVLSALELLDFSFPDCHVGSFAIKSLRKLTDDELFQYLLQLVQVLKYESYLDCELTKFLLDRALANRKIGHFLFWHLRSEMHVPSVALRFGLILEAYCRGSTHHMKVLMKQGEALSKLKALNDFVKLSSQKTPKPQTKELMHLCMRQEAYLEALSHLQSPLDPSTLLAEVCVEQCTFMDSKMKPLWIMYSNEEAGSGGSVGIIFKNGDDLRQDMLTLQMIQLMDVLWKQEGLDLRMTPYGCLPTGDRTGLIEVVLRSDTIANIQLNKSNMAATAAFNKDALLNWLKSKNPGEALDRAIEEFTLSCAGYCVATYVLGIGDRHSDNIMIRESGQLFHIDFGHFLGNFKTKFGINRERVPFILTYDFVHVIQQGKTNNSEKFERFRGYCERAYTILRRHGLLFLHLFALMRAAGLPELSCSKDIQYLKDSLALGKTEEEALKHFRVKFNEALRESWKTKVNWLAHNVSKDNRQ
T2 sequence (P27986 whole entry partner): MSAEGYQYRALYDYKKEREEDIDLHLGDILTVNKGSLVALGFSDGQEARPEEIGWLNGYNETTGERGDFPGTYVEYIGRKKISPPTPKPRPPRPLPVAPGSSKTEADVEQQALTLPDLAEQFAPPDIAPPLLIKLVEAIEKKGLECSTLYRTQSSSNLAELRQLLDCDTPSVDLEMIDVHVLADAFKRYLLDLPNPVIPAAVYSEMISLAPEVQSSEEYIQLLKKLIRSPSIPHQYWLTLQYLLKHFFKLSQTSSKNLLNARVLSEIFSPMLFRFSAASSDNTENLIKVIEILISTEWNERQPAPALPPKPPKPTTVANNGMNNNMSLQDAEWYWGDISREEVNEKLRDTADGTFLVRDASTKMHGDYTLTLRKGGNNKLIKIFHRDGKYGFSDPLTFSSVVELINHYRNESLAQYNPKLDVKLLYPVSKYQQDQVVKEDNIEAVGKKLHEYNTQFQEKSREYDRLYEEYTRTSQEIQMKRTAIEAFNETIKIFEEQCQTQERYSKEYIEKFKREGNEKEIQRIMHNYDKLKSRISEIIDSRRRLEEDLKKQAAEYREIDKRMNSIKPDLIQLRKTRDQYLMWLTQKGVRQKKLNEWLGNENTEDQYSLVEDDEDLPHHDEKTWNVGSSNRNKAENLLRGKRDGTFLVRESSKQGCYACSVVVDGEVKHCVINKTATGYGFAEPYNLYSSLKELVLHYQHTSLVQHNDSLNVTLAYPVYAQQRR
T1 sequence (P42336 whole entry): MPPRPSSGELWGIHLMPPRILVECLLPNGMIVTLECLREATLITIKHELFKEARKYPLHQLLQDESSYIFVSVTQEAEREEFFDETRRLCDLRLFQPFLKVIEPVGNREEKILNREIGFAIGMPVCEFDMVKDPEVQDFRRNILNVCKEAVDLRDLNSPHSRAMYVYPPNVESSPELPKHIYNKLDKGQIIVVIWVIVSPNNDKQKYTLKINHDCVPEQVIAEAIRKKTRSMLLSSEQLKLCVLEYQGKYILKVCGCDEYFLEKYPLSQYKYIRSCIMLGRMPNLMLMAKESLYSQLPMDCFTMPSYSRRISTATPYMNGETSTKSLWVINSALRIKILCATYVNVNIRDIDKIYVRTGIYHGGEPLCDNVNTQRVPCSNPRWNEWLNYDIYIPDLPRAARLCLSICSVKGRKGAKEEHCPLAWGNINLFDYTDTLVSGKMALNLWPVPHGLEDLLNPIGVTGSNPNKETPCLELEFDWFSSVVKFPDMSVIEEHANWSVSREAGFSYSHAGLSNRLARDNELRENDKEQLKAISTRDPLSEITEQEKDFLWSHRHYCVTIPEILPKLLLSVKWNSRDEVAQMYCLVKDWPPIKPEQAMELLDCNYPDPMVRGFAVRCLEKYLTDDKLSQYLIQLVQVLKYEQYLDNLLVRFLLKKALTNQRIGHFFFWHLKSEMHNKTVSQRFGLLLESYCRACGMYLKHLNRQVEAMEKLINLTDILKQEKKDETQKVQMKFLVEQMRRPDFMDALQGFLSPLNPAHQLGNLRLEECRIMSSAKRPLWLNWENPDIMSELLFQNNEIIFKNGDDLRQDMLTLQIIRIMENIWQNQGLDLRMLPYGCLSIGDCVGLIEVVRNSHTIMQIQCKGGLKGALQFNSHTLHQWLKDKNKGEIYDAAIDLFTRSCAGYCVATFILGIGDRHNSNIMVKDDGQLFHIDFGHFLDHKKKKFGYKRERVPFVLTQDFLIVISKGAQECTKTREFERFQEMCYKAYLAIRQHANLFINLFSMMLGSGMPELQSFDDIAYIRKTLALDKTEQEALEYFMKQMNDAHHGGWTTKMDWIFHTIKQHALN
T1 sequence (P27986 whole entry partner): as the sequence (P27986 whole entry partner) above
T4 sequence (P42345 1360-2549 limits assumed): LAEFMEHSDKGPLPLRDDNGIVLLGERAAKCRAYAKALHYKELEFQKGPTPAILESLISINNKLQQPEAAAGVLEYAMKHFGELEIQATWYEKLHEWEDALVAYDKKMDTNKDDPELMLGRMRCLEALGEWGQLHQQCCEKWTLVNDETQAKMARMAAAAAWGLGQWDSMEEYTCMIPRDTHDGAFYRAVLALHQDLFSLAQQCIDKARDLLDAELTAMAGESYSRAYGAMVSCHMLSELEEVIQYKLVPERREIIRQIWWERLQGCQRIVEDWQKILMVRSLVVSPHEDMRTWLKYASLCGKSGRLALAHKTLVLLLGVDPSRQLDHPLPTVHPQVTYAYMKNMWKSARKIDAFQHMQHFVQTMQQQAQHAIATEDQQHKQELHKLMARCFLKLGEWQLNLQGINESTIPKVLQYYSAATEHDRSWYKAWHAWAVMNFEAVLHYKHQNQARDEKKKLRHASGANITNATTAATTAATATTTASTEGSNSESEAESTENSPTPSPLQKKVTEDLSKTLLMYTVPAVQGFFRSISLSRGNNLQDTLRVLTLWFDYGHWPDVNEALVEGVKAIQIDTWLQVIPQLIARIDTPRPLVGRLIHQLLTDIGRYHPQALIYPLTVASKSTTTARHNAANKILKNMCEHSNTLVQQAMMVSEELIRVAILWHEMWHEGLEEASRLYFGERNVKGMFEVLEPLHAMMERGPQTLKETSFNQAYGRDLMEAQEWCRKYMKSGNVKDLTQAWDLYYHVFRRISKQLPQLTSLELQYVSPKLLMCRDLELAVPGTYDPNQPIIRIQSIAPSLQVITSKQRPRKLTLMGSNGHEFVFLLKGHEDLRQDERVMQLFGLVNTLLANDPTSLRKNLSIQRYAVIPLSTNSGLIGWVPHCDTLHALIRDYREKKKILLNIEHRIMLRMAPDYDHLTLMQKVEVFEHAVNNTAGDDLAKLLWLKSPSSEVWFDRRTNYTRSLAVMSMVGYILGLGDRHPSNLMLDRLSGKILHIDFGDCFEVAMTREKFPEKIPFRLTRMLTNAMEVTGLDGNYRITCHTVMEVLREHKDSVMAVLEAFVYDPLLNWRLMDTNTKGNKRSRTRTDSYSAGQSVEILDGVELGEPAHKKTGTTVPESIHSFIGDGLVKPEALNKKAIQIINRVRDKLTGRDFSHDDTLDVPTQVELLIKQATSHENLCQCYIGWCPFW

Structure (SMILES)	IC50 (PI3K α (p110α/p85α); read-out: PI3K α IC50)	IC50 (PI3K δ)	IC50 (PI3K β (p110β/p85α); read-out: PI3K β IC50)	IC50 (mTOR)	IC50 (T47D)	IC50 (PI3K γ (p110γ); read-out: PI3K γ IC50)	dose limiting or most common side effect [1]	also measured
Nc1nc2ccc(-c3ccc4nccc(-c5ccncc5)c4c3)cc2o1 [Compound 4]	< 0.1 µM	< 0.1 µM	< 100 nM	< 1 µM				IC50 (PC3; [2]): < 100 nM
Nc1nc2cc(-c3ccc4ncn(-c5ccccc5)c4c3)ccc2o1 [Compound 11]	< 0.1 µM		< 10000 nM	> 10 µM				IC50 (PC3; [2]): > 10000 nM
Nc1noc2cc(-c3ccc4nccc(-c5ccncc5)c4c3)ccc12 [Compound 16]	< 0.1 µM	< 10 µM	< 10000 nM		< 1 µM			
CC(C)n1nc(-c2cc3ccc(C#N)cc3[nH]2)c2c(N)ncnc21 [Compound 24]								IC50 (PC3; [3]): > 500 nM
CC(C)n1nc(-c2cc3ccc(C(N)=O)cc3[nH]2)c2c(N)ncnc21 [Compound 25]								IC50 (PC3; [3]): > 500 nM
CN1CCC(Nc2ncnc3ccc(-c4ccc5oc(N)nc5c4)cc23)CC1 [Compound 35]	< 0.1 µM	< 0.1 µM		< 10 µM	< 10 µM	< 100 nM		
CN1CCC(n2cnc3ccc(-c4ccc5oc(N)nc5c4)cc3c2=O)CC1 [Compound 36]	< 0.1 µM	< 10 µM		< 10 µM	< 10 µM	> 10000 nM		
Cn1cc(-c2cnc3ccc(-c4ccc5oc(N)nc5c4)cn23)cn1 [Compound 41]	< 0.1 µM	< 1 µM		< 10 µM	< 10 µM			
CN1CCN(c2ccc(-c3cnc4ccc(-c5ccc6oc(N)nc6c5)cn34)cn2)CC1 [Compound 42]	< 0.1 µM	< 1 µM		> 10 µM	< 10 µM	< 1000 nM		
Nc1nc2cc(-c3ccc4ncc(OC5CCOCC5)nc4c3)ccc2o1 [Compound 49]	< 0.1 µM	< 10 µM		< 10 µM	< 10 µM	< 1000 nM		
Nc1nc2cc(-c3ccc4ncc(-c5ccc6nc(N)oc6c5)n4c3)ccc2o1 [Compound 50]	< 0.1 µM	< 10 µM		> 10 µM	< 10 µM	< 100 nM		
Nc1nc2cc(-c3ccc4ncc(C(=O)N5CCOCC5)n4c3)ccc2o1 [Compound 54]		< 10 µM	< 10000 nM	< 10 µM	< 10 µM			
Cc1nc2ccc(-c3ccc4oc(N)nc4c3)nn2c1-c1ccncc1 [Compound 56]	< 0.1 µM	> 10 µM	< 1000 nM	< 1 µM	< 10 µM	< 100 nM		
Nc1nc2cc(-c3ccc4ncc(N5CCOCC5)nc4c3)ccc2o1 [Compound 64]	< 0.1 µM	> 10 µM	< 1000 nM	< 10 µM	< 10 µM	< 100 nM		
CN1CCN(c2cnc3ccc(-c4ccc5oc(N)nc5c4)cc3n2)CC1 [Compound 65]	< 0.1 µM	< 10 µM	< 100 nM	> 10 µM	< 10 µM	< 1000 nM		
CN1CC(C(=O)N2CCC(Nc3ncnc4ccc(-c5ccc6oc(N)nc6c5)cc34)CC2)C1 [Compound 138]	< 0.1 µM	< 0.1 µM	< 1000 nM		> 10 µM	< 1000 nM		
CC1CN(c2cnc3ccc(-c4ccc5oc(N)nc5c4)cc3n2)CCN1 (stereo not shown) [Compound 149]	< 0.1 µM	< 10 µM	< 100 nM		> 10 µM			
CN1CCC(N(C)c2cnc3ccc(-c4ccc5oc(N)nc5c4)cc3n2)CC1 [Compound 151]		< 1 µM			< 10 µM			IC50 (PI3K α (p110α/p85α)): < 0.1 µM; IC50 (PI3K β (p110β/p85α); PI3K β IC50 (nM)): < 10000 nM; IC50 (PI3K γ (p110γ); PI3K γ IC50 (nM)): < 10000 nM

Structure (SMILES)	IC50 (PI3K α (p110α/p85α); read-out: PI3K α IC50)	IC50 (PI3K δ)	IC50 (PI3K β (p110β/p85α); read-out: PI3K β IC50)	IC50 (mTOR)	IC50 (T47D)	IC50 (PI3K γ (p110γ); read-out: PI3K γ IC50)	dose limiting or most common side effect [1]	also measured
Nc1nc2cc(-c3ccc4ncc(N5CCCCC5)nc4c3)ccc2o1 [Compound 175]	< 0.1 µM	> 10 µM	> 10000 nM		> 10 µM	< 10000 nM		
Cc1cn(-c2cnc3ccc(-c4ccc5oc(N)nc5c4)cc3n2)cn1 [Compound 177]	< 0.1 µM	> 10 µM	> 10000 nM		> 10 µM	< 1000 nM		
Nc1nc2cc(-c3ccc4ncc(C(=O)Nc5cccnc5)n4c3)ccc2o1 [Compound 190]	< 0.1 µM	< 1 µM	> 10000 nM		> 10 µM	< 100 nM		
CN(C)N=Nc1[nH]cnc1C(N)=O [dacarbazine, 5-(3,3-dimethyl-1-triazeno)-imidazole-4-carboxamide]							Nausea, vomiting, and anorexia	
Cc1c2oc3c(C)ccc(C(=O)N[C@@H]4C(=O)N[C@H](C(C)C)C(=O)N5CCC[C@H]5C(=O)N(C)CC(=O)N(C)[C@@H](C(C)C)C(=O)O[C@@H]4C)c3nc-2c(C(=O)N[C@@H]2C(=O)N[C@H](C(C)C)C(=O)N3CCC[C@H]3C(=O)N(C)CC(=O)N(C)[C@@H](C(C)C)C(=O)O[C@@H]2C)c(N)c1=O [dactinomycin] (I: T[dV]P[Sar][NMeV] / II: T[dV]P[Sar][NMeV]; ester I:1-I:C, II:1-II:C; linker I:N-II:N via Actinocin(9to1))							Nausea, vomiting, and anorexia	
COc1cccc2c1C(=O)c1c(O)c3c(c(O)c1C2=O)C[C@@](O)(C(C)=O)C[C@@H]3O[C@H]1C[C@H](N)[C@H](O)[C@H](C)O1 [daunorubicin, (8S-cis-)-8-acetyl-10-[(3-amino-2,3,6-trideoxy-α-L-lyxo-hexopyranosyl)oxy]-7,8,9,10-tetrahydro-6,8,11-trihydroxy-1-methoxy-5,12 naphthacenedione hydrochloride]							Myelosuppression	
CC(=O)O[C@@]12CO[C@@H]1C[C@H](O)[C@@]1(C)C(=O)[C@H](O)C3=C(C)[C@@H](OC(=O)[C@H](O)[C@@H](NC(=O)OC(C)(C)C)c4ccccc4)C[C@@](O)([C@@H](OC(=O)c4ccccc4)[C@H]21)C3(C)C [docetaxel, (2R,3S)—N-carboxy-3-phenylisoserine, N-tert-butyl ester, 13-ester with 5β-20-epoxy-1,2α,4,7β,10β,13α-hexahydroxytax-1-1-en-9-one 4-acetate 2-benzoate, trihydrate]							neutropenia	
COc1cccc2c1C(=O)c1c(O)c3c(c(O)c1C2=O)C[C@@](O)(C(=O)CO)C[C@@H]3O[C@H]1C[C@H](N)[C@H](O)[C@H](C)O1.Cl [doxorubicin, (8S,10S)-10-[(3-amino-2,3,6-trideoxy-α-L-lyxo-hexopyranosyl)oxy]-8-glycoloyl, 7,8,9,10-tetrahydro-6,8,11-trihydroxy-1-methoxy-5,12 naphthacenedione hydrochloride]							Myelosuppression	
Nc1ccn([C@@H]2O[C@H](CO)[C@@H](O)C2(F)F)c(=O)n1 [gemcitabine, 2′-deoxy-2′,2′-difluorocytidine monohydrochloride (β-isomer)]							Myelosuppression, including leucopenia, thrombocytopenia, and anemia	
CCc1c2c(nc3ccc(OC(=O)N4CCC(N5CCCCC5)CC4)cc13)-c1cc3c(c(=O)n1C2)COC(=O)[C@]3(O)CC [irinotecan HCl, (4S)-4,11-diethyl-4-hydroxy-9-[(4-piperidinopiperidino)carbonyloxy]-1H-pyrano[3′,4′,6,7]indolizino[1,2-b]quinoline-3,14(4H,12H)-dione hydrochloride]							myelosuppression, including neutropenia, and GI effects, including diarrhea	
N[C@@H](Cc1ccc(N(CCCl)CCCl)cc1)C(=O)O [melphalan, 4-[bis(2-chloroethyl)amino]-L-phenylalanine]							Bone marrow suppression	
O.Sc1ncnc2nc[nH]c12 [mercaptopurine, 1,7-dihydro-6H-purine-6-thione monohydrate]							Myelosuppression and gastrointestinal mucositis	
CN(Cc1cnc2nc(N)nc(N)c2n1)c1ccc(C(=O)N[C@@H](CCC(=O)O)C(=O)O)cc1 [methotrexate]							Myelosuppression (leucopenia, thrombocytopenia, and anemia) and mucositis	
COc1cc([C@@H]2c3cc4c(cc3[C@@H](O[C@@H]3O[C@@H]5CO[C@@H](c6cccs6)O[C@H]5[C@H](O)[C@H]3O)[C@H]3COC(=O)[C@H]23)OCO4)cc(OC)c1O [teniposide, 4′-demethyl-epipodophyllotoxin 9[4,6-0-(R)-thenylidene-β-D-glucopyranoside]]							Myelosuppression	
Nc1nc2nc[nH]c2c(=S)[nH]1 [thioguanine, 2-amino-1,7-dihydro-6H-purine-6-thione]							Myelosuppression, including leucopenia, thrombocytopenia, and anemia	
CC[C@@]1(O)C(=O)OCc2c1cc1n(c2=O)Cc2cc3c(CN(C)C)c(O)ccc3nc2-1 [topotecan HCl, (S)-10-[(dimethylamino)methyl]-4-ethyl-4,9-dihydroxy-1H-pyrano[3′,4′,6,7]-indolizino[1,2-b]quinoline-3,14-(4H,12H)-dione monohydrochloride]							myelosuppression, primarily neutropenia	
CC[C@]1(O)C[C@H]2CN(CCc3c([nH]c4ccccc34)[C@@](C(=O)OC)(c3cc4c(cc3OC)N(C=O)[C@H]3[C@@](O)(C(=O)OC)[C@H](OC(C)=O)[C@]5(CC)C=CCN6CC[C@]43[C@@H]65)C2)C1 [vincristine, vincaleukoblastine, 22-oxo-, sulfate]							Alopecia and neurologic effects	
